According to the supplement of paper PMC10307832:

Assays:
Test in all cases: relative viability (nuclei count vs DMSO), 5 days (fraction); higher = more cells survive
CAP-232 + Pemetrexed = compound: C[C@H]([C@@H](C(=O)N)NC(=O)[C@@H]1CSSC[C@@H](C(=O)N[C@H](C(=O)N[C@@H](C(=O)N[C@H](C(=O)N1)CCCCN)CC2=CNC3=CC=CC=C32)CC4=CC=C(C=C4)O)NC(=O)[C@@H](CC5=CC=CC=C5)N)O [CAP-232] + Nc1nc2[nH]cc(CCc3ccc(C(=O)N[C@@H](CCC(=O)O)C(=O)O)cc3)c2c(=O)[nH]1 [Pemetrexed] (partner 0.2 µM)
Summary of the method: (§1)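 Each reported value is a median over duplicate plates. It expresses relative viability: treated-well nuclei count divided by vehicle-well nuclei count. Lung cancer cell lines in 1536-well plates were dosed by pin tool a day after seeding, alone with one drug or with a fixed anchor-drug dose plus five library-drug doses (not always all listed) in √10 steps, and nuclei were counted after 5 days.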

CAP-232 + Palbociclib = compound: C[C@H]([C@@H](C(=O)N)NC(=O)[C@@H]1CSSC[C@@H](C(=O)N[C@H](C(=O)N[C@@H](C(=O)N[C@H](C(=O)N1)CCCCN)CC2=CNC3=CC=CC=C32)CC4=CC=C(C=C4)O)NC(=O)[C@@H](CC5=CC=CC=C5)N)O [CAP-232] + CC(=O)c1c(C)c2cnc(Nc3ccc(N4CCNCC4)cn3)nc2n(C2CCCC2)c1=O [Palbociclib] (partner 0.5 µM)
Summary of the method: as §1

CAP-232 + Pictilisib = compound: C[C@H]([C@@H](C(=O)N)NC(=O)[C@@H]1CSSC[C@@H](C(=O)N[C@H](C(=O)N[C@@H](C(=O)N[C@H](C(=O)N1)CCCCN)CC2=CNC3=CC=CC=C32)CC4=CC=C(C=C4)O)NC(=O)[C@@H](CC5=CC=CC=C5)N)O [CAP-232] + CS(=O)(=O)N1CCN(Cc2cc3nc(-c4cccc5[nH]ncc45)nc(N4CCOCC4)c3s2)CC1 [Pictilisib] (partner 1 µM)
Summary of the method: as §1

CAP-232 + Bortezomib = compound: C[C@H]([C@@H](C(=O)N)NC(=O)[C@@H]1CSSC[C@@H](C(=O)N[C@H](C(=O)N[C@@H](C(=O)N[C@H](C(=O)N1)CCCCN)CC2=CNC3=CC=CC=C32)CC4=CC=C(C=C4)O)NC(=O)[C@@H](CC5=CC=CC=C5)N)O [CAP-232] + CC(C)C[C@H](NC(=O)[C@H](Cc1ccccc1)NC(=O)c1cnccn1)B(O)O [Bortezomib] (partner 0.002 µM)
Summary of the method: as §1

CAP-232 + Lapatinib = compound: C[C@H]([C@@H](C(=O)N)NC(=O)[C@@H]1CSSC[C@@H](C(=O)N[C@H](C(=O)N[C@@H](C(=O)N[C@H](C(=O)N1)CCCCN)CC2=CNC3=CC=CC=C32)CC4=CC=C(C=C4)O)NC(=O)[C@@H](CC5=CC=CC=C5)N)O [CAP-232] + CS(=O)(=O)CCNCc1ccc(-c2ccc3ncnc(Nc4ccc(OCc5cccc(F)c5)c(Cl)c4)c3c2)o1 [Lapatinib] (partner 2 µM)
Summary of the method: as §1

Cell Line | relative viability (CAP-232 + Pemetrexed; first compound 0.4 µM) | relative viability (CAP-232 + Pemetrexed; first compound 1.265 µM) | relative viability (CAP-232 + Pemetrexed; first compound 4 µM) | relative viability (CAP-232 + Pemetrexed; first compound 12.65 µM) | relative viability (CAP-232 + Palbociclib; first compound 0.4 µM) | relative viability (CAP-232 + Palbociclib; first compound 1.265 µM) | relative viability (CAP-232 + Palbociclib; first compound 4 µM) | relative viability (CAP-232 + Palbociclib; first compound 12.65 µM) | relative viability (CAP-232 + Pictilisib; first compound 0.4 µM) | relative viability (CAP-232 + Pictilisib; first compound 1.265 µM) | relative viability (CAP-232 + Pictilisib; first compound 4 µM) | relative viability (CAP-232 + Pictilisib; first compound 12.65 µM) | relative viability (CAP-232 + Bortezomib; first compound 0.4 µM) | relative viability (CAP-232 + Bortezomib; first compound 1.265 µM) | relative viability (CAP-232 + Bortezomib; first compound 4 µM) | relative viability (CAP-232 + Bortezomib; first compound 12.65 µM) | relative viability (CAP-232 + Lapatinib; first compound 0.4 µM) | relative viability (CAP-232 + Lapatinib; first compound 1.265 µM) | relative viability (CAP-232 + Lapatinib; first compound 4 µM) | relative viability (CAP-232 + Lapatinib; first compound 12.65 µM)
NCI-H1755 | 0.398 | 0.375 | 0.514 | 0.393 | 0.474 | 0.406 | 0.48 | 0.413 | 0.379 | 0.402 | 0.452 | 0.415 | 1.05 | 0.912 | 1.15 | 0.887 | 1.13 | 0.984 | 1.23 | 1.02
NCI-H1792 | 1.12 | 0.78 | 0.849 | 0.465 | 0.893 | 0.694 | 0.669 | 0.545 | 0.26 | 0.323 | 0.3 | 0.204 | 1.13 | 1.01 | 1.27 | 0.845 | 1.48 | 0.917 | 0.95 | 0.856
NCI-H1915 | 0.563 | 0.41 | 0.55 | 0.464 | 0.5 | 0.538 | 0.524 | 0.511 | 0.878 | 0.852 | 1.01 | 0.914 | 1.1 | 1.05 | 1.06 | 0.95 | 1.04 | 0.957 | 1.04 | 0.982
